Literature values in patent US8865899B2 (AstraZeneca AB, priority 2006, dated 2014).

Experiments:
VEGF RTK = conditions: statement in words, background
tumour models = conditions: once-daily oral administration; Wedge et al, Proc. Am. Assoc. Canc. Res. 2001; 42: abstract 3126

COc1cc2c(Nc3ccc(Br)cc3F)ncnc2cc1OCC1CCN(C)CC1 [ZD6474, 4-(4-bromo-2-fluoroanilino)-6-methoxy-7-(1-methylpiperidin-4-ylmethoxy)quinazoline]
inhibition of VEGF RTK (VEGF RTK): potent inhibitor | anti-tumour activity (tumour models): broad-spectrum anti-tumour activity
